Laboratory results taken from US8653146B2, “Method for treating Th17 inflammatory disease through inhibition of vascular endothelial growth factor receptors and pharmaceutical composition therefor” (Postech Academy-Industry Foundation, priority 2009, dated 2014).

Key:
Format in all cases: in vivo, C57BL/6 mice
[1] = test system: Th1- and Th17-mediated immune responses; assay: Overall conclusion on lung inflammation and Th1/Th17 immune responses in asthma animal models
Description: VEGFR inhibitors were assayed for inhibitory activity in asthma animal models suffering from Th17-mediated inflammation.
(§1) To construct asthma animal models, C57BL/6 (female, 6 weeks old) mice were divided into groups, each consisting of five mice and sensitized with 75 μg of ovalbumn (OVA) as an allergen and 10 μg of an endotoxin (lipopolysaccharide, LPS) as an adjuvant via an intranasal route on Day 0, 1, 2 and 7. Some mice in experiment groups were intraperitoneally injected with SU5416 (purchased from Sigma) at a dose of 1 mg/kg or 10 mg/kg, or anti-Flk-1 (purchased from R&D systems) at a dose of 0.1, 1 or 10 μg 30 min before the intranasal administration of OVA and LPS. On days 14, 15, 21 and 22, OVA (50 μg) was intranasally administered to the animals after anesthesia.
(§2) The mice were examined for pulmonary inflammation 6 hours (day 22) and 48 hours (day 24) after the last OVA administration. In this regard, the mice were anesthetized by intraperitoneal injection of a mixture of ketamin and xylazine and allowed to undergo thoracotomy to expose the trachea into which a catheter was then inserted, followed by ligation. The airway was washed by injecting 1 mL of sterile saline twice to obtain bronchoalveolar lavage (BAL) fluid. For the analysis of T lymphocytes in pulmonary tissues, cells were extracted from the local lymph nodes of the lung excised.

[2] = test system: inflammatory cells in BAL fluid; assay: Inflammatory cell count in BAL fluid of OVA/LPS-sensitized asthma animal models; conditions: SU5416 1 mg/kg or 10 mg/kg i.p. 30 min before OVA/LPS sensitization (days 0, 1, 2, 7); 48 hours after last OVA injection (day 24); FIG. 9
Description: as §1
The mice were examined for pulmonary inflammation 6 hours (day 22) and 48 hours (day 24) after the last OVA administration. […]
(§3) The BAL fluid was centrifuged at 4° C. at 3000 rpm for 10 min and the cell pellet thus formed was suspended in PBS (phosphate buffered saline). […] In a 1000× magnified sight under an optical microscope, 300 or more inflammatory cells were observed and classified into macrophages, lymphocytes, neutrophils, and eosinophils which were then counted. In addition, levels of gamma interferon, responsible for Th1 inflammatory response, and IL-17 and IL-6, both responsible for Th17 inflammatory response, in the BAL fluid were quantified by ELISA. […]

[3] = test system: immune cells isolated from local lymph nodes; assay: Cytokine secretion by local lymph node immune cells in response to allergen (OVA) stimulus, ELISA; conditions: SU5416 upon sensitization; six hours after three OVA challenges (day 21); FIGS. 10b and 10c
Description: as §1, with “On days 14, 15, 21 and 22, OVA (50 μg) was intranasally administered to the animals after anesthesia.” left out
as §2, with “In” for “The mice were examined for pulmonary inflammation 6 hours (day 22) and 48 hours (day 24) after the last OVA administration. In”
The cells obtained from the lymph nodes were incubated for 72 hours in RPMI (Gibco) supplemented with 100 μg/ml OVA, 10% FBS, and an antibiotic before respective cytokines responsible for Th1-, Th17- and Th2-mediated inflammatory responses were quantified using ELISA. […]

[4] = test system: gamma interferon, IL-17 and IL-6 in BAL fluid; assay: Cytokine levels (gamma interferon, IL-17, IL-6) in BAL fluid of OVA/LPS asthma animal models by ELISA
Description: as §1
as §2, with “For the analysis of T lymphocytes in pulmonary tissues, cells were extracted from the local lymph nodes of the lung excised.” left out
as §3
Mice in the experimental groups were intraperitoneally injected with 0.1, 1.0 and 10 μg of a monoclonal antibody against VEGFR-2 (anti-Flk-1, R&D Systems) while mice in the control group were intraperitoneally injected with PBS. […] BAL fluid obtained 24 hours after the sensitization (day 1) was quantitatively analyzed for inflammatory cell and IL-6 levels and the results are shown in FIG. 13.

[5] = SU5416 upon sensitization, six hours after three rounds of OVA challenge (day 21), FIG. 10a

SMILES: Cc1cc(C)c(/C=C2\C(=O)Nc3ccccc32)[nH]1 [SU5416, Semaxanib]
- inflammation in the lung ([1]; summary of Examples 1 and 2): excellently suppress inflammation in the lung
- Th1- and Th17-mediated immune responses ([1]; summary of Examples 1 and 2, immunological perspective): suppressive of Th1- and Th17-mediated immune responses
- inflammatory cell count in BAL fluid [2]: reduced in a dose-dependent manner
- IL-17 secreted by local lymph node immune cells in response to allergen stimulus [3]: significantly decreased level
- gamma interferon secreted by local lymph node immune cells in response to allergen stimulus [3]: significantly decreased level
- IL-6 level in BAL fluid ([4]; SU5416 10 mg/kg, 6 hours after three rounds of sensitization with OVA and LPS, vs OVA/LPS_sham, FIG. 11): lower amounts of IL-6 than did the control
- level of IL-17 in BAL fluid [4, 5]: significantly decrease
- level of gamma interferon in BAL fluid [4, 5]: significantly decrease
